Test results published in patent US20230413824A1, “AGROCHEMICAL COMPOSITION COMPRISING 3-SUBSTITUTED PHENYLAMIDINE COMPOUNDS AND USE THEREOF” (PI INDUSTRIES LIMITED, priority 2020, published 2023).
Like-named read-outs stand apart in the source and are kept apart here.

Tests used:
Type in all cases: in vivo
Erysiphe cichoracearum = Erysiphe cichoracearum test in cucumber (preventive, glasshouse); conditions: single compound
Alternaria solani = Alternaria solani test in tomato (preventive, glasshouse); conditions: for pest or weed control at 0.05 ppm / pest or weed control at 0.1 ppm: Alternaria solani
Phakopsora pachyrhizi = Phakopsora pachyrhizi test in soybean (preventive, glasshouse); conditions: single compound
Pyricularia oryzae = assay: whole plant or invertebrate; conditions: for Observed Efficacy: single compound, preventive spray, rice
Septoria nodorum = assay: Parastagonospora nodorum/Septoria nodorum/Stagnospora nodorum test in wheat (preventive, glasshouse); conditions: single compound
Experimental: The single compounds or compound combinations were dissolved in 2% DMSO/Acetone and then mixed with water containing emulsifier to a calibrated spray volume of 50 mL. The spray solutions were poured into spray bottles for further applications.
To test the preventive activity of compounds, healthy young wheat plants, raised in the greenhouse, were sprayed with the single compound or mixture preparation at the stated application rates inside the spray cabinets using hollow cone nozzles. One day after treatment, the plants were inoculated with a suspension containing 2.8×10^6 Stagnospora nodorum inoculum. The inoculated plants were then kept in a greenhouse chamber at 22-25° C. temperature and 90-100% relative humidity for disease expression.
A visual assessment of the performance of the compounds and respective compound combinations was carried out by rating the disease severity (0-100% scale) on treated plants 3, 7 and 10 days after application. Efficacy (% control) of the compounds was calculated by comparing the disease rating in the treatment with the one of the untreated control. The compounds were also assessed for their plant compatibility by recording symptoms like necrosis, chlorosis & stunting. The results are shown for the compound of formula (I-1) to (I-5) in Table E1-E5.

Botrytis cinerea = Botrytis cinerea test in tomato (preventive, glasshouse); conditions: single compound, preventive spray on tomato, % control vs untreated
[1] = 0.1 ppm, preventive spray on cucumber
[2] = Table B3, single compound, Conc. 0.05 ppm, preventive
[3] = Table B3, single compound, Conc. 0.1 ppm, preventive
[4] = single compound, 0.05 ppm, preventive
[5] = single compound, 0.05 ppm, preventive spray
[6] = single compound, 0.1 ppm, preventive
[7] = single compound, 0.1 ppm, preventive spray
[8] = 0.05 ppm, preventive spray on soybean
[9] = 0.1 ppm, preventive spray on soybean
[10] = Conc. 0.05 ppm, soybean, preventive, Table D4
[11] = Conc. 0.05 ppm, soybean, preventive, Table D5
[12] = Conc. 0.1 ppm, soybean, preventive, Table D4
[13] = Conc. 0.1 ppm, soybean, preventive, Table D5
[14] = 0.05 ppm, preventive spray on cucumber
[15] = Pyricularia oryzae, read-out: Observed Efficacy

Structure (SMILES)	Observed Efficacy (%) (Erysiphe cichoracearum; 0.1 ppm, cucumber, preventive)	Observed Efficacy (%) (Erysiphe cichoracearum; [1])	Observed Efficacy (%) (Alternaria solani; [2])	Observed Efficacy (%) (Alternaria solani; [3])	Observed Efficacy (%) (Alternaria solani; [4])	Observed Efficacy (%) (Alternaria solani; [5])	Observed Efficacy (%) (Alternaria solani; [6])	Observed Efficacy (%) (Alternaria solani; [7])	Observed Efficacy (%) (Phakopsora pachyrhizi; [8])	Observed Efficacy (%) (Phakopsora pachyrhizi; [9])	Observed Efficacy (%) (Phakopsora pachyrhizi; [10])	Observed Efficacy (%) (Phakopsora pachyrhizi; [11])	Observed Efficacy (%) (Phakopsora pachyrhizi; [12])	Observed Efficacy (%) (Phakopsora pachyrhizi; [13])	Observed Efficacy (Pyricularia oryzae; Conc. 0.05 ppm) [%]	Observed Efficacy (Pyricularia oryzae; Conc. 0.1 ppm) [%]	Observed Efficacy (%) (Septoria nodorum; 0.05 ppm)	Observed Efficacy (%) (Septoria nodorum; 0.1 ppm)	Observed Efficacy (%) (Botrytis cinerea; Conc. 0.1 ppm)	Observed Efficacy (%) (Erysiphe cichoracearum; [14])	also measured
CO/C=C(/C(=O)OC)c1ccccc1Oc1cc(Oc2ccccc2C#N)ncn1 [Azoxystrobin, azoxystrobin]	50	50	33	49	33	33	49	49	15	22	15	15	22	22	21	26	42	47	45	–	Observed Efficacy (Alternaria solani; single compound, Conc. 0.05 ppm, preventive spray): 33%; Observed Efficacy (Alternaria solani; single compound, Conc. 0.1 ppm, preventive spray): 49%
CO/C=C(/C(=O)OC)c1ccccc1COc1cccc(C(F)(F)F)n1 [Picoxystrobin, picoxystrobin]	43	43	23	26	23	23	26	26	20	28	20	20	28	28	16	33	12	26	38	19	Observed Efficacy (%) (Erysiphe cichoracearum; 0.05 ppm, cucumber, preventive): 19%
O=C1c2ccccc2C(=O)N1SC(Cl)(Cl)Cl [Folpet, folpet]	–	32	12	16	12	–	16	–	–	–	5	5	12	12	–	–	–	–	–	24	pest or weed control at 0.05 ppm (Erysiphe cichoracearum; Golovinomyces cichoracearum, 0.05 ppm, cucumber, preventive, read-out: Observed Efficacy (%)): 24%; pest or weed control at 0.1 ppm (Erysiphe cichoracearum; Golovinomyces cichoracearum, 0.1 ppm, cucumber, preventive, read-out: Observed Efficacy (%)): 32%; pest or weed control at 0.05 ppm (Alternaria solani; single compound, 0.05 ppm, preventive spray, read-out: Observed Efficacy (%)): 12%; pest or weed control at 0.1 ppm (Alternaria solani; single compound, 0.1 ppm, preventive spray, read-out: Observed Efficacy (%)): 16%; pest or weed control at 0.05 ppm (Alternaria solani; single compound, Conc. 0.05 ppm, preventive spray, read-out: Observed Efficacy): 12%; pest or weed control at 0.1 ppm (Alternaria solani; single compound, Conc. 0.1 ppm, preventive spray, read-out: Observed Efficacy): 16%; Observed Efficacy (%) (Alternaria solani; Table B4, single compound, Conc. 0.1 ppm, preventive): 16%; pest or weed control at 0.05 ppm (Phakopsora pachyrhizi; Phakopsora pachyrhizi, 0.05 ppm, preventive spray on soybean, read-out: Observed Efficacy (%)): 5%; pest or weed control at 0.1 ppm (Phakopsora pachyrhizi; Phakopsora pachyrhizi, 0.1 ppm, preventive spray on soybean, read-out: Observed Efficacy (%)): 12%; pest or weed control at 0.05 ppm (Pyricularia oryzae; [15]): 34%; pest or weed control at 0.1 ppm (Pyricularia oryzae; [15]): 39%; pest or weed control at 0.05 ppm (Septoria nodorum; Parastagonospora nodorum, 0.05 ppm, read-out: Observed Efficacy (%)): 16%; pest or weed control at 0.1 ppm (Septoria nodorum; Parastagonospora nodorum, 0.1 ppm, read-out: Observed Efficacy (%)): 21%; pest or weed control at 0.05 ppm (Botrytis cinerea; Botrytis cinerea, Conc. 0.05 ppm, read-out: Observed Efficacy (%)): 24%; pest or weed control at 0.1 ppm (Botrytis cinerea; Botrytis cinerea, Conc. 0.1 ppm, read-out: Observed Efficacy (%)): 38%
